Test results as given in patent US20260262643A1, “HERBICIDAL BENZOXAZINES” (FMC CORPORATION, priority 2022, published 2026).

How the values were obtained:
[1] = tested on: blackgrass; assay: Test A preemergence; format: in vivo, Alopecurus myosuroides; conditions: Alopecurus myosuroides, pre-emergence, 240 h, read-out: Plant response rating, Blackgrass; for pest or weed control at 125 g/ha: 125 g ai/ha, visual injury after 10 days, 0 to 100 scale, 0 is no effect, 100 is complete control; for pest or weed control at 500 g/ha: 500 g ai/ha, 0 to 100 scale (0 no effect, 100 complete control), 10 days
Procedure, shortened: (§1)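 Visual injury ratings on a 0–100 scale (100 = complete control) versus untreated controls, taken 10 days after treatment in greenhouse. Preemergence: directed soil spray onto seeded loam/sand. Postemergence: foliar application at one- to two-leaf stage, plants 2–10 cm. Formulation: non-phytotoxic solvent plus surfactant.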

[2] = tested on: corn; assay: Test A preemergence; format: in vivo, Zea mays; conditions: Zea mays, pre-emergence, 240 h; for Corn plant response rating (crop injury, 0 = no effect, 100 = complete kill) at 125 g/ha: 125 g ai/ha, visual injury after 10 days, 0 to 100 scale, 0 is no effect, 100 is complete control; for Corn plant response rating (crop injury, 0 = no effect, 100 = complete kill) at 500 g/ha: 500 g ai/ha, 0 to 100 scale (0 no effect, 100 complete control), 10 days
Procedure, shortened: as §1

[3] = tested on: kochia; assay: Test A preemergence; format: in vivo, Bassia scoparia; conditions: Bassia scoparia, pre-emergence, 240 h, read-out: Plant response rating, Kochia; for pest or weed control at 125 g/ha: 125 g ai/ha, visual injury after 10 days, 0 to 100 scale, 0 is no effect, 100 is complete control; for pest or weed control at 500 g/ha: 500 g ai/ha, 0 to 100 scale (0 no effect, 100 complete control), 10 days
Procedure, shortened: as §1

[4] = tested on: ragweed; assay: Test A preemergence; format: in vivo, Ambrosia artemisiifolia; conditions: Ambrosia artemisiifolia, pre-emergence, 240 h, read-out: Plant response rating, Ragweed; for pest or weed control at 125 g/ha: 125 g ai/ha, visual injury after 10 days, 0 to 100 scale, 0 is no effect, 100 is complete control; for pest or weed control at 500 g/ha: 500 g ai/ha, 0 to 100 scale (0 no effect, 100 complete control), 10 days
Procedure, shortened: as §1

[5] = tested on: soybean; assay: Test A preemergence; format: in vivo, Glycine max; conditions: Glycine max, pre-emergence, 240 h, read-out: Plant response rating, Soybean; for plant injury at 125 g/ha: 125 g ai/ha, visual injury after 10 days, 0 to 100 scale, 0 is no effect, 100 is complete control; for plant injury at 500 g/ha: 500 g ai/ha, 0 to 100 scale (0 no effect, 100 complete control), 10 days
Procedure, shortened: as §1

[6] = tested on: wheat; assay: Test A preemergence; format: in vivo, Triticum aestivum; conditions: Triticum aestivum, pre-emergence, 240 h, read-out: Plant response rating, Wheat; for plant injury at 125 g/ha: 125 g ai/ha, visual injury after 10 days, 0 to 100 scale, 0 is no effect, 100 is complete control; for plant injury at 500 g/ha: 500 g ai/ha, 0 to 100 scale (0 no effect, 100 complete control), 10 days
Procedure, shortened: as §1

[7] = tested on: blackgrass; assay: Test A postemergence; format: in vivo, Alopecurus myosuroides; conditions: Alopecurus myosuroides, post-emergence, 240 h, postemergence, 10 days, 0 to 100 scale (0 no effect, 100 complete control); for pest or weed control at 125 g/ha: 125 g ai/ha, read-out: Blackgrass plant response rating; for pest or weed control at 500 g/ha: 500 g ai/ha, visual injury, read-out: Plant response rating, Blackgrass
Procedure, shortened: as §1

[8] = tested on: foxtail, giant; assay: Test A postemergence; format: in vivo, Setaria faberi; conditions: Setaria faberi, post-emergence, 240 h, postemergence, 10 days, 0 to 100 scale (0 no effect, 100 complete control); for pest or weed control at 125 g/ha: 125 g ai/ha, read-out: Foxtail, Giant plant response rating; for pest or weed control at 500 g/ha: 500 g ai/ha, visual injury, read-out: Plant response rating, Foxtail, Giant
Procedure, shortened: as §1

[9] = tested on: goosegrass; assay: Test A postemergence; format: in vivo, Eleusine indica; conditions: Eleusine indica, post-emergence, 240 h, postemergence, 10 days, 0 to 100 scale (0 no effect, 100 complete control); for pest or weed control at 125 g/ha: 125 g ai/ha, read-out: Goosegrass plant response rating; for pest or weed control at 500 g/ha: 500 g ai/ha, visual injury, read-out: Plant response rating, Goosegrass
Procedure, shortened: as §1

[10] = tested on: kochia; assay: Test A postemergence; format: in vivo, Bassia scoparia; conditions: Bassia scoparia, post-emergence, 240 h, postemergence, 10 days, 0 to 100 scale (0 no effect, 100 complete control); for pest or weed control at 125 g/ha: 125 g ai/ha, read-out: Kochia plant response rating; for pest or weed control at 500 g/ha: 500 g ai/ha, visual injury, read-out: Plant response rating, Kochia
Procedure, shortened: as §1

[11] = tested on: ragweed; assay: Test A postemergence; format: in vivo, Ambrosia artemisiifolia; conditions: Ambrosia artemisiifolia, post-emergence, 240 h, postemergence, 10 days, 0 to 100 scale (0 no effect, 100 complete control); for pest or weed control at 125 g/ha: 125 g ai/ha, read-out: Ragweed plant response rating; for pest or weed control at 500 g/ha: 500 g ai/ha, visual injury, read-out: Plant response rating, Ragweed
Procedure, shortened: as §1

[12] = tested on: wheat; assay: Test A postemergence; format: in vivo, Triticum aestivum; conditions: Triticum aestivum, post-emergence, 240 h, postemergence, 10 days, 0 to 100 scale (0 no effect, 100 complete control); for plant injury at 125 g/ha: 125 g ai/ha, read-out: Wheat plant response rating; for plant injury at 500 g/ha: 500 g ai/ha, visual injury, read-out: Plant response rating, Wheat
Procedure, shortened: as §1

[13] = tested on: ducksalad; assay: Test B flooded paddy test; format: in vivo, Heteranthera limosa; conditions: Heteranthera limosa, 312 h, 250 g ai/ha, Flood, 13 days, 0 to 100 scale (0 no effect, 100 complete control); read-out: Plant response rating, Ducksalad
Procedure, shortened: (§2)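 Species grown to 2-leaf stage; pots flooded 3 cm above soil and compound applied directly to paddy water, depth maintained throughout. After 13 days in greenhouse, plants visually rated against controls on 0–100 scale (0 no effect, 100 complete control); dash means no result.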

[14] = tested on: rice; assay: Test B flooded paddy test; format: in vivo, Oryza sativa; conditions: Oryza sativa, 312 h; 250 g ai/ha, Flood, 13 days, 0 to 100 scale (0 no effect, 100 complete control); read-out: Plant response rating, Rice
Procedure, shortened: as §2

Row | Compound | pest or weed control at 125 g/ha [1] [%] | pest or weed control at 500 g/ha [1] [%] | Corn plant response rating (crop injury, 0 = no effect, 100 = complete kill) at 125 g/ha [2] [%] | Corn plant response rating (crop injury, 0 = no effect, 100 = complete kill) at 500 g/ha [2] [%] | pest or weed control at 125 g/ha [3] [%] | pest or weed control at 500 g/ha [3] [%] | pest or weed control at 125 g/ha [4] [%] | pest or weed control at 500 g/ha [4] [%] | plant injury at 125 g/ha [5] [%] | plant injury at 500 g/ha [5] [%] | plant injury at 125 g/ha [6] [%] | plant injury at 500 g/ha [6] [%] | pest or weed control at 125 g/ha [7] [%] | pest or weed control at 500 g/ha [7] [%] | pest or weed control at 125 g/ha [8] [%] | pest or weed control at 500 g/ha [8] [%] | pest or weed control at 125 g/ha [9] [%] | pest or weed control at 500 g/ha [9] [%] | pest or weed control at 125 g/ha [10] [%] | pest or weed control at 500 g/ha [10] [%] | other results
1 | Cc1ccc(-n2cnc(C3CCC3)n2)cc1C(=O)N1C[C@H](C)Oc2c(Cl)cccc21 [Compound 96, [(2S)-8-Chloro-2,3-dihydro-2-methyl-4H-1,4-benzoxazin-4-yl][5-(3-cyclobutyl-1H-1,2,4-triazol-1-yl)-2-methylphenyl]methanone] | 40 | 80 | 30 | 50 | 30 | 100 | 30 | 30 | 50 | 50 | 20 | 50 | 50 | 90 | 90 | 90 | 30 | 60 | 90 | 100 | pest or weed control at 125 g/ha [11]: 60%; pest or weed control at 500 g/ha [11]: 70%; plant injury at 125 g/ha [12]: 30%; plant injury at 500 g/ha [12]: 40%; pest or weed control at 250 g/ha [13]: 65%; plant injury at 250 g/ha [14]: 0%
2 | COc1ccc(-n2cnc(C(C)C)n2)cc1C(=O)N1C[C@H](C)Oc2c(Cl)cccc21 [Compound 84, [(2S)-8-chloro-2-methyl-2,3-dihydro-1,4-benzoxazin-4-yl]-[5-(3-isopropyl-1,2,4-triazol-1-yl)-2-methoxy-phenyl]methanone] | 80 | 80 | 20 | 20 | 80 | 100 | 70 | 100 | 90 | 100 | 60 | 90 | 70 | 70 | 80 | 100 | 100 | 100 | 90 | 90 | pest or weed control at 125 g/ha [11]: 100%; pest or weed control at 500 g/ha [11]: 100%; plant injury at 125 g/ha [12]: 40%; plant injury at 500 g/ha [12]: 50%; pest or weed control at 250 g/ha [13]: 60%; plant injury at 250 g/ha [14]: 0%
3 | CCc1ncn(-c2ccc(OC)c(C(=O)N3C[C@H](C)Oc4c(Cl)cccc43)c2)n1 [Compound 88, [(2S)-8-Chloro-2,3-dihydro-2-methyl-4H-1,4-benzoxazin-4-yl][5-(3-ethyl-1H-1,2,4-triazol-1-yl)-2-methoxyphenyl]methanone] | 80 | 80 | 40 | 40 | 90 | 100 | 60 | 100 | 50 | 100 | 20 | 40 | 60 | 90 | 90 | 90 | 100 | 100 | 90 | 100 | pest or weed control at 125 g/ha [11]: 70%; pest or weed control at 500 g/ha [11]: 100%; plant injury at 125 g/ha [12]: 40%; plant injury at 500 g/ha [12]: 90%; pest or weed control at 250 g/ha [13]: 55%; plant injury at 250 g/ha [14]: 10%
